Here are results for five compounds from patent publication US6335039B1, “Pharmaceutical formulations comprising vegetal material selected from trichilia” (Laboratorio Catarinense S/A, priority 1997, dated 2002).

The subject of assay [1] is corpus cavernosum of the rabbit (RbCC). Format: cell-based. The conditions noted are these: for relaxation of RbCC in presence of ATP-dependent potassium channel blocker: blocker 10 μM (Glybenclamide, FIG. 4).
The subject of the next assay is HCC. As to the kind of experiment: Superfusion of isolated corpus cavernosum (human, HCC). Format: cell-based.
The subject of a further assay is nociception by formalin. As to the kind of experiment: Formalin-induced licking. Format: in vivo, mice. As to conditions: naloxone 10 minutes before; acute and inflammatory phases, formalin 2.5% w/v. Here is the method:
Male Swiss mice varying from 25 to 35 g, were housed at 22° C.±2° C. under a 12 h light/12 h dark circle and with access to water and purina. The animals were acclimatized to the laboratory for at least 1 hour before testing and were used once throughout the experiments.
Mice were lightly anaesthetized, with exception of those used to analyze the first phase of fromalin-induced pain. The surface of the animals paws was injected with 20 μL of 2.5% w/v formalin. Two groups of mice (mice treated with T. catigua and control mice) were simultaneously observed over a period from 0 to 30 min after the formalin injection. The total time spent by the animal licking the injected paw was timed with a chronometer and was considered as an indicative of pain. The first phase of the nociceptive response normally occurred […] the formalin injection and the second phase was from 15 to 30 min after such induction. These phases represent the neurogenic and inflammatory responses, respectively. In order to avoid pharmacokinetic influences, different groups of animals were used to analyze each phase of the experiment. Alternatively, animals were pretreated with naloxone 10 min prior to the administration of compositions comprising an extract of T. catigua.

`CC1(C)Oc2ccc(C#N)cc2C(N2CCCC2=O)C1O` (stereo not shown) [CMK, cromakalim]: the “relaxation of RbCC in presence of ATP-dependent potassium channel blocker” value in assay [1] is recorded as “inhibited”.

`O=[N+]([O-])OCC(CO[N+](=O)[O-])O[N+](=O)[O-]` [GTN, glyceryltrinitrate]: in assay [1], the “relaxation of RbCC in presence of tetrodotoxin” value was “did not present any effect” and the “relaxation of RbCC in presence of ATP-dependent potassium channel blocker” value is “without affecting”. For the same compound, in assay [1] (L-NAME 10 μM, FIG. 2, 6 experiments), the “relaxation of RbCC during L-NAME infusion” value is listed as “not affected”. Further, the “relaxation of RbCC in presence of atropine” value in assay [1] (atropine 1 μM, FIG. 3, 4 experiments) is given as “did not present any effect”. Further, the “relaxation of HCC during L-NAME infusion” value with HCC (Ach 0.6 μM, GTN 1.3 μM, Cat 10-100 μL, 4 tissue strips from 2 donators) is listed as “not significantly affected”.

In the case of `COC(=O)[C@@H](N)CCCNC(=N)N[N+](=O)[O-]` [L-NAME, N^m-nitro-L-arginine methyl ester], the “basal tonus of RbCC” value in assay [1] (infusion of L-NAME 10 μM, FIG. 2) is “enhanced the basal tonus”. In the assay on HCC (infusion of L-NAME), the HCC tonus entry is given as “enhanced the HCC tonus”.

As to `N=C(N)NCCC[C@H](N)C(=O)O` [L-arg, L-arginine], the “RbCC tonus on subsequent infusion after L-NAME” value in assay [1] (L-arg 300 μM after L-NAME, FIG. 2) is on record as “reverted the enhanced tonus”.

As for `CN1CC[C@]23c4c5ccc(O)c4O[C@H]2[C@@H](O)C=C[C@H]3[C@H]1C5` [morphine], in the assay with nociception by formalin, the “analgesic action after pretreatment with naloxone” value is on record as “reverted”.
